Source: US20240041042A1, “1-(PYRIDYL)-5-AZINYLPYRAZOLE DERIVATIVES, AND THEIR USE FOR CONTROL OF UNDESIRED PLANT GROWTH” (Bayer Aktiengesellschaft, priority 2020, published 2024)

What was measured:
Type in all cases: in vivo
[1] = tested on: Echinochloa crus-galli (ECHCG); assay: Pre-emergence herbicidal action against ECHCG
Method in brief: (§1)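 Pre-emergence soil-surface spray, WP/EC formulation, 0.5% additive, 600 l/ha water, rates of 320 g/ha or lower. Greenhouse, ~3 wk. Visual score, % of untreated control (100% = plants dead, 0% = like control).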

[2] = tested on: Matricaria inodora (MATIN); assay: Pre-emergence herbicidal action against MATIN
Method in brief: as §1

[3] = tested on: Alopecurus myosuroides (ALOMY); assay: Pre-emergence herbicidal action against ALOMY; settings: scored visually after about 3 weeks, 100% = plants have died
Method in brief: as §1

Lolium rigidum (LOLRI) [4] = assay: Pre-emergence herbicidal action against LOLRI
Method in brief: as §1

[5] = tested on: Alopecurus myosuroides (ALOMY); assay: Post-emergence herbicidal action against ALOMY; settings: visual rating about 3 weeks after treatment vs untreated controls (100% = plants have died, 0% = like control plants)
Method in brief: (§2)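 Greenhouse plants sprayed at the one-leaf stage, 2–3 weeks after sowing, with WP or EC formulations plus 0.5% additive at 600 l/ha water. Activity rated visually after about 3 weeks versus untreated controls (100% = dead, 0% = like control), at 320 g/ha or lower.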

Avena fatua (AVEFA) [6] = assay: Pre-emergence herbicidal action against AVEFA; settings: visual scoring after about 3 weeks vs untreated controls
Method in brief: as §1

[7] = tested on: Amaranthus retroflexus (AMARE); assay: Pre-emergence herbicidal action against AMARE; settings: visual scoring after about 3 weeks vs untreated controls
Method in brief: as §1

[8] = tested on: Polygonum convolvulus (POLCO); assay: Post-emergence herbicidal action against POLCO
Method in brief: as §2

[9] = tested on: Verconica persica (VERPE); assay: Post-emergence herbicidal action against VERPE
Method in brief: as §2

[10] = tested on: Matricaria inodora (MATIN); assay: Post-emergence herbicidal action against MATIN; settings: dosage 320 g/ha
Method in brief: as §2

Setaria viridis (SETVI) [11] = assay: Post-emergence herbicidal action against SETVI
Method in brief: as §2

Avena fatua (AVEFA) [12] = assay: Post-emergence herbicidal action against AVEFA; settings: visual rating about 3 weeks after treatment
Method in brief: as §2

Viola tricolor (VIOTR) [13] = assay: Pre-emergence herbicidal action against VIOTR
Method in brief: as §1

[14] = tested on: Echinochloa crus-galli (ECHCG); assay: Post-emergence herbicidal action against ECHCG
Method in brief: as §2

[15] = tested on: Pharbitis purpurea (PHBPU); assay: Pre-emergence herbicidal action against PHBPU
Method in brief: as §1

[16] = tested on: Digitaria sanguinalis (DIGSA); assay: Post-emergence herbicidal action against DIGSA; settings: visual rating about 3 weeks after treatment
Method in brief: as §2

[17] = tested on: Digitaria sanguinalis (DIGSA); assay: Pre-emergence herbicidal action against DIGSA
Method in brief: as §1

[18] = tested on: Polygonum convolvulus (POLCO); assay: Pre-emergence herbicidal action against POLCO
Method in brief: as §1

[19] = tested on: Verconica persica (VERPE); assay: Pre-emergence herbicidal action against VERPE
Method in brief: as §1

Lolium rigidum (LOLRI) [20] = assay: Post-emergence herbicidal action against LOLRI
Method in brief: as §2

Setaria viridis (SETVI) [21] = assay: Pre-emergence herbicidal action against SETVI
Method in brief: as §1

[22] = tested on: Abutilon theophrasti (ABUTH); assay: Pre-emergence herbicidal action against ABUTH; settings: Dosage column 320 g/ha (title prints 3200 g/ha); scored visually after about 3 weeks; 100% = plants have died
Method in brief: as §1

Viola tricolor (VIOTR) [23] = assay: Post-emergence herbicidal action against VIOTR
Method in brief: as §2

[24] = tested on: Amaranthus retroflexus (AMARE); assay: Post-emergence herbicidal action against AMARE; settings: 320 g/ha, visual rating about 3 weeks after treatment
Method in brief: as §2

[25] = tested on: Pharbitis purpurea (PHBPU); assay: Post-emergence herbicidal action against PHBPU
Method in brief: as §2

[26] = 80 g/ha, visual scoring after about 3 weeks vs untreated controls

C[C@@H](Oc1nn(-c2nc(F)ccc2F)c(-c2cncc(F)c2)c1C1CC1)C(=O)O [Example I-180]
Pre-emergence action against ECHCG in % ([1]; dosage 80 g/ha): 100%
Pre-emergence action against ECHCG in % ([1]; dosage 320 g/ha): 100%
Pre-emergence action against MATIN in % ([2]; dosage 80 g/ha): 90%
Pre-emergence action against MATIN in % ([2]; dosage 320 g/ha): 90%
Pre-emergence action against ALOMY ([3]; 80 g/ha): 90%
Pre-emergence action against ALOMY ([3]; 320 g/ha): 100%
Pre-emergence action against LOLRI in % (Lolium rigidum (LOLRI) [4]; dosage 80 g/ha): 100%
Pre-emergence action against LOLRI in % (Lolium rigidum (LOLRI) [4]; dosage 320 g/ha): 100%
Post-emergence action against ALOMY in % ([5]; 80 g/ha): 90%
Post-emergence action against ALOMY in % ([5]; 320 g/ha): 90%
Pre-emergence action against AVEFA in % (Avena fatua (AVEFA) [6]; 80 g/ha): 90%
Pre-emergence action against AVEFA in % (Avena fatua (AVEFA) [6]; 320 g/ha): 90%
Pre-emergence action against AMARE in % ([7]; 80 g/ha): 100%
Pre-emergence action against AMARE in % ([7]; 320 g/ha): 100%
Post-emergence action against POLCO in % ([8]; dosage 80 g/ha): 80%
Post-emergence action against POLCO in % ([8]; dosage 320 g/ha): 90%
Post-emergence action against VERPE in % ([9]; 320 g/ha, VERPE): 90%
Post-emergence action against VERPE in % ([9]; dosage 80 g/ha): 80%
Post-emergence action against MATIN in % [10]: 90%
Post-emergence action against SETVI in % (Setaria viridis (SETVI) [11]; dosage 80 g/ha): 80%
Post-emergence action against SETVI in % (Setaria viridis (SETVI) [11]; dosage 320 g/ha): 90%
Post-emergence action against AVEFA in % (Avena fatua (AVEFA) [12]; 80 g/ha): 80%
Post-emergence action against AVEFA in % (Avena fatua (AVEFA) [12]; 320 g/ha): 90%
Pre-emergence action against VIOTR in % (Viola tricolor (VIOTR) [13]; 320 g/ha, Viola tricolor): 100%
Pre-emergence action against VIOTR in % (Viola tricolor (VIOTR) [13]; dosage 80 g/ha): 100%
Post-emergence action against ECHCG in % ([14]; dosage 80 g/ha): 80%
Post-emergence action against ECHCG in % ([14]; dosage 320 g/ha): 90%
Pre-emergence action against PHBPU in % ([15]; dosage 80 g/ha): 90%
Pre-emergence action against PHBPU in % ([15]; dosage 320 g/ha): 90%
Post-emergence action against DIGSA in % ([16]; 80 g/ha): 80%
Post-emergence action against DIGSA in % ([16]; 320 g/ha): 80%
Pre-emergence action against DIGSA in % [17, 26]: 90%
Pre-emergence action against DIGSA in % ([17]; dosage 320 g/ha): 100%
Pre-emergence action against POLCO in % ([18]; dosage 80 g/ha): 90%
Pre-emergence action against POLCO in % ([18]; dosage 320 g/ha): 100%
Pre-emergence action against VERPE in % ([19]; dosage 80 g/ha): 100%
Pre-emergence action against VERPE in % ([19]; dosage 320 g/ha): 100%
Post-emergence action against LOLRI in % (Lolium rigidum (LOLRI) [20]; dosage 80 g/ha): 90%
Post-emergence action against LOLRI in % (Lolium rigidum (LOLRI) [20]; dosage 320 g/ha): 90%
Pre-emergence action against SETVI in % (Setaria viridis (SETVI) [21]; dosage 80 g/ha): 100%
Pre-emergence action against SETVI in % (Setaria viridis (SETVI) [21]; dosage 320 g/ha): 100%
Pre-emergence action against ABUTH [22]: 80%
Post-emergence action against VIOTR in % (Viola tricolor (VIOTR) [23]; 80 g/ha): 80%
Post-emergence action against VIOTR in % (Viola tricolor (VIOTR) [23]; 320 g/ha): 80%
Post-emergence action against AMARE in % [24]: 90%

COC(=O)[C@@H](C)Oc1nn(-c2nc(F)ccc2F)c(-c2cncc(F)c2)c1Cl [Example I-154]
Pre-emergence action against ECHCG in % ([1]; dosage 80 g/ha): 90%
Pre-emergence action against ECHCG in % ([1]; dosage 320 g/ha): 100%
Pre-emergence action against MATIN in % ([2]; dosage 80 g/ha): 90%
Pre-emergence action against MATIN in % ([2]; dosage 320 g/ha): 100%
Pre-emergence action against ALOMY ([3]; 80 g/ha): 80%
Pre-emergence action against ALOMY ([3]; 320 g/ha): 90%
Pre-emergence action against LOLRI in % (Lolium rigidum (LOLRI) [4]; dosage 80 g/ha): 90%
Pre-emergence action against LOLRI in % (Lolium rigidum (LOLRI) [4]; dosage 320 g/ha): 100%
Post-emergence action against PHBPU in % ([25]; dosage 80 g/ha): 80%
Post-emergence action against PHBPU in % ([25]; dosage 320 g/ha): 90%
Pre-emergence action against AVEFA in % (Avena fatua (AVEFA) [6]; 320 g/ha): 80%
Pre-emergence action against AMARE in % ([7]; 80 g/ha): 90%
Pre-emergence action against AMARE in % ([7]; 320 g/ha): 100%
Post-emergence action against POLCO in % ([8]; dosage 320 g/ha): 80%
Post-emergence action against MATIN in % [10]: 80%
Post-emergence action against SETVI in % (Setaria viridis (SETVI) [11]; dosage 320 g/ha): 80%
Post-emergence action against AVEFA in % (Avena fatua (AVEFA) [12]; 320 g/ha): 80%
Pre-emergence action against VIOTR in % (Viola tricolor (VIOTR) [13]; 320 g/ha, Viola tricolor): 100%
Pre-emergence action against VIOTR in % (Viola tricolor (VIOTR) [13]; dosage 80 g/ha): 100%
Post-emergence action against ECHCG in % ([14]; dosage 80 g/ha): 80%
Post-emergence action against ECHCG in % ([14]; dosage 320 g/ha): 80%
Pre-emergence action against PHBPU in % ([15]; dosage 80 g/ha): 80%
Pre-emergence action against PHBPU in % ([15]; dosage 320 g/ha): 90%
Post-emergence action against DIGSA in % ([16]; 80 g/ha): 80%
Post-emergence action against DIGSA in % ([16]; 320 g/ha): 90%
Pre-emergence action against DIGSA in % [17, 26]: 90%
Pre-emergence action against DIGSA in % ([17]; dosage 320 g/ha): 100%
Pre-emergence action against POLCO in % ([18]; dosage 320 g/ha): 90%
Pre-emergence action against VERPE in % ([19]; dosage 320 g/ha): 100%
Post-emergence action against LOLRI in % (Lolium rigidum (LOLRI) [20]; dosage 80 g/ha): 80%
Post-emergence action against LOLRI in % (Lolium rigidum (LOLRI) [20]; dosage 320 g/ha): 90%
Pre-emergence action against SETVI in % (Setaria viridis (SETVI) [21]; dosage 80 g/ha): 90%
Pre-emergence action against SETVI in % (Setaria viridis (SETVI) [21]; dosage 320 g/ha): 100%
Pre-emergence action against ABUTH [22]: 90%
Post-emergence action against VIOTR in % (Viola tricolor (VIOTR) [23]; 320 g/ha): 80%
